From patent US20220089575A1, “FARNESOID X RECEPTOR AGONISTS AND USES THEREOF” (Metacrine, Inc., priority 2017, published 2022)

Biological target: T1, hFXR (Homo sapiens, UniProt Q96RI1)
T1 construct: expressed in transfected cells; host or cells: CV-1 cells
T1 sequence (Q96RI1 1-486): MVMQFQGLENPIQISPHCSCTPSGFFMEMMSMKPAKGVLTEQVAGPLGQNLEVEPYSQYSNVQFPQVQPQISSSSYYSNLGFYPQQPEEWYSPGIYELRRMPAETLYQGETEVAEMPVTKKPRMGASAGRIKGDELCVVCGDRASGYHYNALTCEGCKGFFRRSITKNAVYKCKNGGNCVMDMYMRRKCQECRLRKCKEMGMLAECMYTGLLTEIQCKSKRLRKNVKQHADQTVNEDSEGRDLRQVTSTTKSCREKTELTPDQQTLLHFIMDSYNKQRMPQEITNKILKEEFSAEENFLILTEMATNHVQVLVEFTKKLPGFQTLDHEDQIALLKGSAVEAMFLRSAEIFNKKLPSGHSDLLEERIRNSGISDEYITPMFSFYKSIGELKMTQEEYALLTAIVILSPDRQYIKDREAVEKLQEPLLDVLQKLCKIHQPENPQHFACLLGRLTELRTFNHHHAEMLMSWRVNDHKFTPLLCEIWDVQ
T1 sequence (P19793 1-462 partner): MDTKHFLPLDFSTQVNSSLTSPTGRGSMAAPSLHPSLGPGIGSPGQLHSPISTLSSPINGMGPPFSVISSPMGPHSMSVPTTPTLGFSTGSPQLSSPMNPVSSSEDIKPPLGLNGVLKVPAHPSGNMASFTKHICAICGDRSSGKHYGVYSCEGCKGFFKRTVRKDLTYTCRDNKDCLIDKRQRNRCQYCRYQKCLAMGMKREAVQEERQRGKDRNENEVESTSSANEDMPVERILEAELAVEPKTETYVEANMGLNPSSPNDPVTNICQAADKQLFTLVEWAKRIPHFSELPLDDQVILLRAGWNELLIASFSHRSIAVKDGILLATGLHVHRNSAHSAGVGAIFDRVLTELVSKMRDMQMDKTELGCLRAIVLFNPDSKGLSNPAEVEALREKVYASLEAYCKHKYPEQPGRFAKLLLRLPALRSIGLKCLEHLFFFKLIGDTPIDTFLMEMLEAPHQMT
Assay: In Vitro FXR Assay (TK): TK-ECRE-luc reporter in transfected CV-1 cells
Type: cell-based
Conditions: 18 hrs, luminescence, maximum efficacy of <25% of the Fexarmine control classified as '+'
Outline: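 CV-1 cells in DMEM with 10% charcoal-stripped FBS were co-transfected with hFXR, hRXR, TK-ECRE-luc reporter and pCMX-YFP plasmids. After 18 h, compounds serially diluted in DMSO were added for a further 18 h, then cells were lysed and luminescence read.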

Row | SMILES | EC50 [µM]
1 | COc1ccc([C@H]2CC[C@H](CN(c3cc(-c4coc(C(C)C)n4)ccn3)C(=O)[C@H]3CC[C@H](OC(=O)N4CCN(C)CC4)CC3)CC2)nc1C [Compound 6.77, trans-4-((4-(2-Isopropyloxazol-4-yl)pyridine-2-yl)((trans-4-(5-methoxy-6-methylpyridin-2-yl)cyclohexyl)methyl)carbamoyl)cyclohexyl 4-methylpiperazine-1-carboxylate] | ≤ 0.25
2 | COc1ccc([C@H]2CC[C@H](CN(c3cc(-c4coc(C5CC5)n4)ccn3)C(=O)[C@H]3CC[C@H](OC(=O)N4CCNCC4)CC3)CC2)nc1C [Compound 6.78, trans-4-(4-(2-Cyclopropyloxazol-4-yl)pyridine-2-yl)((trans-4-(5-methoxy-6-methylpyridin-2-yl)cyclohexyl)methyl) carbamoyl)cyclohexylpiperazine-1-carboxylate] | 0.25 to 1
3 | COc1ccc([C@H]2CC[C@H](CN(c3cc(-c4coc(C5CC5)n4)ccn3)C(=O)[C@H]3CC[C@H](OC(=O)NC4CCN(C)CC4)CC3)CC2)nc1C [Compound 6.79, trans-4-((4-(2-Cyclopropyloxazol-4-yl)pyridine-2-yl)((trans-4-(5-methoxy-6-methylpyridin-2-yl)cyclohexyl)methyl)carbamoyl)cyclohexyl (1-methylpiperidin-4-yl)carbamate] | ≤ 0.25
4 | COc1ccc([C@H]2CC[C@H](CN(c3cc(-c4coc(C5CC5)n4)ccn3)C(=O)[C@H]3CC[C@H](OC(=O)N[C@@H]4CCCN(C)C4)CC3)CC2)nc1C [Compound 6.80, trans-4-((4-(2-Cyclopropyloxazol-4-yl)pyridin-2-yl)((trans-4-(5-methoxy-6-methylpyridin-2-yl)cyclohexyl)methyl)carbamoyl)cyclohexyl ((R)-1-methylpiperidin-3-yl)carbamate] | ≤ 0.25
5 | CCN1CCN(C(=O)O[C@H]2CC[C@H](C(=O)N(C[C@H]3CC[C@H](c4ccc(OC)c(C)n4)CC3)c3cc(-c4coc(C5CC5)n4)ccn3)CC2)CC1 [Compound 6.81, trans-4-((4-(2-Cyclopropyloxazol-4-yl)pyridine-2-yl)((trans-4-(5-methoxy-6-methylpyridin-2-yl)cyclohexyl)methyl)carbamoyl)cyclohexyl 4-ethylpiperazine-1-carboxylate] | ≤ 0.25
6 | COc1ccc([C@H]2CC[C@H](CN(c3cc(-c4coc(C5CC5)n4)ccn3)C(=O)[C@H]3CC[C@H](OC(=O)N4CCN(C(C)C)CC4)CC3)CC2)nc1C [Compound 6.82, trans-4-((4-(2-Cyclopropyloxazol-4-yl)pyridine-2-yl)((trans-4-(5-methoxy-6-methylpyridin-2-yl)cyclohexyl)methyl)carbamoyl)cyclohexyl 4-isopropylpiperazine-1-carboxylate] | ≤ 0.25
7 | COc1ccc([C@H]2CC[C@H](CN(c3cc(-c4coc(C5CC5)n4)ccn3)C(=O)[C@H]3CC[C@H](OC(=O)N4CCOC(C)(C)C4)CC3)CC2)nc1C [Compound 6.83, trans-4-((4-(2-Cyclopropyloxazol-4-yl)pyridin-2-yl)((trans-4-(5-methoxy-6-methylpyridin-2-yl)cyclohexyl)methyl)carbamoyl)cyclohexyl 2,2-dimethylmorpholine-4-carboxylate] | ≤ 0.25
8 | COc1ccc([C@H]2CC[C@H](CN(c3cc(-c4coc(C5CC5)n4)ccn3)C(=O)[C@H]3CC[C@H](OC(=O)N4CC(C5COC5)C4)CC3)CC2)nc1C [Compound 6.84, trans-4-((4-(2-Cyclopropyloxazol-4-yl)pyridin-2-yl)((trans-4-(5-methoxy-6-methylpyridin-2-yl)cyclohexyl)methyl)carbamoyl)cyclohexyl 3-(oxetan-3-yl) azetidine-1-carboxylate] | ≤ 0.25
9 | CCc1nc(-c2ccnc(N(C[C@H]3CC[C@H](c4ccc(OC)c(C)n4)CC3)C(=O)[C@H]3CC[C@H](OC(=O)NCCO)CC3)c2)co1 [Compound 6.85, trans-4-((4-(2-Ethyloxazol-4-yl)pyridin-2-yl)((trans-4-(5-methoxy-6-methylpyridin-2-yl)cyclohexyl)methyl)carbamoyl)cyclohexyl (2-hydroxyethyl)carbamate] | ≤ 0.25
